US12606552B2, “Bifunctional compound, preparation method therefor, and use thereof” (SUZHOU KINTOR PHARMACEUTICALS, INC., priority 2020, dated 2026)

Molecular target: T1, AR (Homo sapiens, UniProt P10275, T878A)
T1 sequence (P10275 1-920 T878A): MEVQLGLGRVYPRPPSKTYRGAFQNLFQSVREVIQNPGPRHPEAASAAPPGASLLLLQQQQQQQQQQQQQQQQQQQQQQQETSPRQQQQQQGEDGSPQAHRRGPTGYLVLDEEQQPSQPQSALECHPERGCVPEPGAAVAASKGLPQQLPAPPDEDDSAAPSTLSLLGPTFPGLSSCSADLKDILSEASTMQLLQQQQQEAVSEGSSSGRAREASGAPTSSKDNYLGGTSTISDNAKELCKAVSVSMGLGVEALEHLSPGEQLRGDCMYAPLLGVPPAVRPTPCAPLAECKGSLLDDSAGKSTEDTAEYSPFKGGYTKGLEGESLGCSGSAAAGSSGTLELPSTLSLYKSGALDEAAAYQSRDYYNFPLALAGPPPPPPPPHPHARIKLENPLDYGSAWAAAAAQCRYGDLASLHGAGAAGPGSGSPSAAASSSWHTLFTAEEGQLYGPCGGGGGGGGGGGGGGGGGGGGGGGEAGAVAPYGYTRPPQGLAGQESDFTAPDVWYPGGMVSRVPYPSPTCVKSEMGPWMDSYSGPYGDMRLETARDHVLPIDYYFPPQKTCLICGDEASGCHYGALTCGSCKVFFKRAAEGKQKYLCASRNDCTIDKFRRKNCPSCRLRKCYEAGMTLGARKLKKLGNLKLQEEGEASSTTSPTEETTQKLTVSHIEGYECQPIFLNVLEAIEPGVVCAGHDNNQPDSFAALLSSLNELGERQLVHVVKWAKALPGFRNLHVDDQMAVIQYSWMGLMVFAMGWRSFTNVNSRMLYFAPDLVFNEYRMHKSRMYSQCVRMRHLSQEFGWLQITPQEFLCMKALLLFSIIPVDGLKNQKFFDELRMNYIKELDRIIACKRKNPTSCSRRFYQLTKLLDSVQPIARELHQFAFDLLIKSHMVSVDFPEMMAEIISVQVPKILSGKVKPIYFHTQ
Experiment: Effects of compounds on AR expression in LNCaP cells (ELISA, DC50)
Assay type: cell-based
Parameters: Measurement of the Effects of Drugs on the Expression of AR in Cells by ELISA Method; endogenous in cells; host or cells: LNCaP
Conditions: 24 hours of drug treatment, AR by ELISA
Method in brief: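 LNCaP cells at about 15,000/well were treated for 24 h with compound at 0.0001–2 μmol/L final. AR in cell lysates was measured by ELISA (OD450). Inhibition was relative to DMSO control after blank subtraction, and DC50 was calculated from it.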

Structure (SMILES)	DC50 [nM]
Cc1ncsc1-c1ccc(CNC(=O)[C@@H]2C[C@@H](O)CN2C(=O)[C@@H](NC(=O)c2ccc(C(F)(F)C(=O)Nc3ccc(-c4ccc(N5C(=S)N(c6ccc(C#N)c(C(F)(F)F)c6F)C(=O)C5(C)C)cn4)cc3)cc2)C(C)(C)C)cc1 [Compound A241]	807
CC1(C)C(=O)N(c2ccc(C#N)c(C(F)(F)F)c2F)C(=S)N1c1ccc(C2CC2C(=O)NCCNC(=O)COc2cccc3c2C(=O)N(C2CCC(=O)NC2=O)C3=O)nc1 (centres unmarked) [Compound A24]	> 2000
Cc1cc(C(C(=O)N2C[C@H](O)C[C@H]2C(=O)N[C@@H](CC(=O)N2CCC(C#Cc3ccc(N4C(=S)N(c5ccc(C#N)c(C(F)(F)F)c5F)C(=O)C4(C)C)cc3)CC2)c2ccc(-c3scnc3C)cc2)C(C)C)on1 (some centres unmarked) [Compound A176]	62.1
CC(C)(C)[C@H](NC(=O)COCCOc1ccc(-c2ncc(N3C(=S)N(c4ccc(C#N)c(C(F)(F)F)c4F)C(=O)C3(C)C)cc2F)cc1F)C(=O)N1C[C@H](O)C[C@H]1C(=O)NCc1ccc(C(N)=O)cc1 [Compound A129]	67.9
Cc1ncsc1-c1cn(C)c([C@@H]2C[C@@H](O)CN2C(=O)[C@@H](NC(=O)COCCCCOc2ccc(-c3ncc(N4C(=S)N(c5ccc(C#N)c(C(F)(F)F)c5F)C(=O)C4(C)C)cc3F)c(C(F)(F)F)c2)C(C)(C)C)n1 [Compound A221]	144
Cc1cc(C(C(=O)N2C[C@H](O)C[C@H]2C(=O)N[C@@H](CC(=O)NCCCCCCOc2ccc(-c3ncc(N4C(=S)N(c5ccc(C#N)c(C(F)(F)F)c5F)C(=O)C4(C)C)cc3F)cc2F)c2ccc(-c3scnc3C)cc2)C(C)C)on1 (some centres unmarked) [Compound A177]	253
Cc1ncsc1-c1ccc(CNC(=O)[C@@H]2C[C@@H](O)CN2C(=O)[C@@H](NC(=O)CCn2cc(COc3ccc(-c4ccc(N5C(=S)N(c6ccc(C#N)c(C(F)(F)F)c6F)C(=O)C5(C)C)cn4)cc3)nn2)C(C)(C)C)cc1 [Compound A80]	116
Cc1ncsc1-c1ccc(CNC(=O)[C@@H]2C[C@@H](O)CN2C(=O)[C@@H](NC(=O)COCCOc2ccc(-c3ncc(N4C(=S)N(c5ccc(C#N)c(C(F)(F)F)c5F)C(=O)C4(C)C)cc3C(F)(F)F)cc2)C(C)(C)C)cc1 [Compound A92]	99.6
Cc1ncsc1-c1ccc(CNC(=O)[C@@H]2C[C@@H](O)CN2C(=O)[C@@H](NC(=O)COCCOCCOc2ccc(-c3ccc(N4C(=S)N(c5ccc(C#N)c(C(F)(F)F)c5F)C(=O)C4(C)C)cn3)cc2)C(C)(C)C)cc1 [Compound A76]	40
CC(C)(C)[C@H](NC(=O)COCCCCOc1ccc(-c2ncc(N3C(=S)N(c4ccc(C#N)c(C(F)(F)F)c4F)C(=O)C3(C)C)cc2F)c(C(F)(F)F)c1)C(=O)N1C[C@H](O)C[C@H]1c1nc(-c2cccs2)c[nH]1 [Compound A210]	834
Cc1ncsc1-c1ccc(CNC(=O)[C@@H]2C[C@@H](O)CN2C(=O)[C@@H](NC(=O)COCC(F)(F)CCOc2ccc(-c3ncc(N4C(=S)N(c5ccc(C#N)c(C(F)(F)F)c5F)C(=O)C4(C)C)cc3F)cc2F)C(C)(C)C)cc1 [Compound A162]	186
Cc1ncsc1-c1ccc(CNC(=O)[C@@H]2C[C@@H](O)CN2C(=O)[C@@H](NC(=O)COCCCCn2cc(-c3ccc(N4C(=S)N(c5ccc(C#N)c(C(F)(F)F)c5F)C(=O)C4(C)C)cn3)ccc2=O)C(C)(C)C)cc1 [Compound A98]	281
CC1(C)C(=O)N(c2ccc(C#N)c(C(F)(F)F)c2F)C(=S)N1c1ccc(C2CC2C(=O)NCCCCNC(=O)COc2cccc3c2C(=O)N(C2CCC(=O)NC2=O)C3=O)nc1 (centres unmarked) [Compound A26]	> 2000
CC1(C)C(=O)N(c2ccc(C#N)c(C(F)(F)F)c2F)C(=S)N1c1ccc(-c2ccc(OCCNC(=O)COc3cccc4c3C(=O)N(C3CCC(=O)NC3=O)C4=O)cc2)cc1 (centres unmarked) [Compound A22]	73.7
CC1(C)C(=O)N(c2ccc(C#N)c(C(F)(F)F)c2F)C(=S)N1c1ccc(C#CC2CCN(CCNC(=O)COc3cccc4c3C(=O)N(C3CCC(=O)NC3=O)C4=O)CC2)cc1 (centres unmarked) [Compound A27]	34.8
CC(C)(C)[C@H](NC(=O)COCCCCOc1ccc(-c2ncc(N3C(=S)N(c4ccc(C#N)c(C(F)(F)F)c4F)C(=O)C3(C)C)cc2F)c(C(F)(F)F)c1)C(=O)N1C[C@H](O)C[C@H]1C(=O)NCc1cnco1 [Compound A219]	589

Structure (SMILES)	DC50 [nM]
Cc1ncsc1-c1ccc(CNC(=O)[C@@H]2C[C@@H](O)CN2C(=O)[C@@H](NC(=O)COCC(F)C(F)COc2ccc(-c3ncc(N4C(=S)N(c5ccc(C#N)c(C(F)(F)F)c5F)C(=O)C4(C)C)cc3F)c(C(F)(F)F)c2)C(C)(C)C)cc1 (some centres unmarked) [Compound A154]	37.6
Cc1ncsc1-c1ccc(CNC(=O)[C@@H]2C[C@@H](O)CN2C(=O)[C@@H](NC(=O)COCCCC(=O)N(Cc2ccccc2)c2ccc(-c3ccc(N4C(=S)N(c5ccc(C#N)c(C(F)(F)F)c5F)C(=O)C4(C)C)cn3)cc2)C(C)(C)C)cc1 [Compound A67]	248
CC1(C)C(=O)N(c2ccc(C#N)c(C(F)(F)F)c2F)C(=S)N1c1ccc(-c2ccc(C(=O)N3CCN(C(=O)COc4cccc5c4C(=O)N(C4CCC(=O)NC4=O)C5=O)CC3)cc2)nc1 (centres unmarked) [Compound A45]	> 2000
CC(=O)O[C@@H]1C[C@@H](C(=O)NCc2ccc(-c3scnc3C)cc2)N(C(=O)[C@@H](NC(=O)COCCCCOc2ccc(-c3ncc(N4C(=S)N(c5ccc(C#N)c(C(F)(F)F)c5F)C(=O)C4(C)C)cc3F)c(C(F)(F)F)c2)C(C)(C)C)C1 [Compound A146]	259
Cc1cc(C(C(=O)N2C[C@H](O)C[C@H]2C(=O)N[C@@H](CC(=O)N2CCC(C#Cc3ccc(N4C(=S)N(c5ccc(C#N)c(C(F)(F)F)c5F)C(=O)C4(C)C)cn3)CC2)c2ccc(-c3scnc3C)cc2)C(C)C)on1 (some centres unmarked) [Compound A173]	78.1
CC(C)(C)[C@H](NC(=O)COCCCCOc1ccc(-c2ncc(N3C(=S)N(c4ccc(C#N)c(C(F)(F)F)c4F)C(=O)C3(C)C)cc2F)cc1F)C(=O)N1C[C@H](O)C[C@H]1C(=O)NCc1ccc(C(N)=O)cc1 [Compound A119]	7.2
Cc1ncsc1-c1ccc(CNC(=O)[C@@H]2C[C@@H](O)CN2C(=O)[C@@H](NC(=O)COCCCCN2CC=C(c3ccc(N4C(=S)N(c5ccc(C#N)c(C(F)(F)F)c5F)C(=O)C4(C)C)cn3)CC2)C(C)(C)C)cc1 [Compound A135]	1540
Cc1ncsc1-c1ccc(CNC(=O)[C@@H]2C[C@@H](O)CN2C(=O)[C@@H](NC(=O)C2CCN(C3CCN(C(=O)c4ccc(-c5ccc(N6C(=S)N(c7ccc(C#N)c(C(F)(F)F)c7F)C(=O)C6(C)C)cn5)cc4)CC3)CC2)C(C)(C)C)cc1 [Compound A61]	268
Cc1ncsc1-c1ccc(CNC(=O)[C@@H]2C[C@@H](O)CN2C(=O)[C@@H](NC(=O)COCCCCNC(=O)/C=C/c2ccc(N3C(=S)N(c4ccc(C#N)c(C(F)(F)F)c4F)C(=O)C3(C)C)cn2)C(C)(C)C)cc1 [Compound A170]	946
CC(=O)O[C@@H]1C[C@@H](C(=O)NCc2ccc(-c3scnc3C)cc2)N(C(=O)[C@@H](NC(=O)COCCCCOc2c(F)cc(-c3ncc(N4C(=S)N(c5ccc(C#N)c(C(F)(F)F)c5F)C(=O)C4(C)C)cc3F)cc2F)C(C)(C)C)C1 [Compound A152]	167
Cn1cncc1-c1c[nH]c([C@@H]2C[C@@H](O)CN2C(=O)[C@@H](NC(=O)COCCCCOc2ccc(-c3ccc(N4C(=S)N(c5ccc(C#N)c(C(F)(F)F)c5F)C(=O)C4(C)C)cn3)cc2)C(C)(C)C)n1 [Compound A232]	41.3
CC1(C)C(=O)N(c2ccc(C#N)c(C(F)(F)F)c2F)C(=S)N1c1ccc(C2CC2C(=O)NCCCNC(=O)COc2cccc3c2C(=O)N(C2CCC(=O)NC2=O)C3=O)nc1 (centres unmarked) [Compound A25]	> 2000
Cc1ncsc1-c1ccc(CNC(=O)[C@@H]2C[C@@H](O)CN2C(=O)[C@@H](NC(=O)[C@H]2CC[C@H](CNC(=O)CCCc3ccc(N4C(=S)N(c5ccc(C#N)c(C(F)(F)F)c5F)C(=O)C4(C)C)cn3)CC2)C(C)(C)C)cc1 [Compound A140]	1500
CC(C)(C)[C@H](NC(=O)COCCCCOc1ccc(-c2ccc(N3C(=S)N(c4ccc(C#N)c(C(F)(F)F)c4F)C(=O)C3(C)C)cn2)cc1)C(=O)N1C[C@H](O)C[C@H]1c1nc(-c2cccnc2)c[nH]1 [Compound A214]	173
Cc1ncsc1-c1ccc(CNC(=O)[C@@H]2C[C@@H](O)CN2C(=O)[C@@H](NC(=O)COCC(F)CCOc2ccc(-c3ccc(N4C(=S)N(c5ccc(C#N)c(C(F)(F)F)c5F)C(=O)C4(C)C)cn3)cc2)C(C)(C)C)cc1 (some centres unmarked) [Compound A171]	80.2
Cc1ncsc1-c1c[nH]c([C@@H]2C[C@@H](O)CN2C(=O)[C@@H](NC(=O)COCCCCOc2ccc(-c3ccc(N4C(=S)N(c5ccc(C#N)c(C(F)(F)F)c5F)C(=O)C4(C)C)cn3)cc2)C(C)(C)C)n1 [Compound A198]	42.8
